Biological target: HPK1 (Homo sapiens (Human), UniProt Q92918)
Assay: HPK1 biochemical enzyme assay (microfluidic mobility shift assay)
Conditions: ATP 1 mM final concentration; 1.5 nM HPK1; 30 min preincubation; Caliper EZ Reader; read-out: HPK1 1000UMATP caliper IC50
Description: HPK1 biochemical enzyme assay: HPK1 enzyme inhibition was measured using a microfluidic mobility shift assay. […] Test compounds were titrated in ten point curves (top final assay concentration 3 μM), and preincubated with enzyme/substrate mix for 30 min prior to initiation of the reaction by addition of ATP (1 mM final concentration) and substrate (1 μM final concentration; Carna Biosciences) diluted in assay buffer supplemented by MgCl2 (final assay concentration of 5 mM). Following 60 min incubation at RT, the reaction was terminated by addition of 60 μl/well termination buffer (Carna Biosciences) and signal determination using a Caliper EZ Reader (Perkin Elmer, UK).
The compound numbers correspond to the compound numbers in Table 1.

Sequence of HPK1 (Q92918 whole entry): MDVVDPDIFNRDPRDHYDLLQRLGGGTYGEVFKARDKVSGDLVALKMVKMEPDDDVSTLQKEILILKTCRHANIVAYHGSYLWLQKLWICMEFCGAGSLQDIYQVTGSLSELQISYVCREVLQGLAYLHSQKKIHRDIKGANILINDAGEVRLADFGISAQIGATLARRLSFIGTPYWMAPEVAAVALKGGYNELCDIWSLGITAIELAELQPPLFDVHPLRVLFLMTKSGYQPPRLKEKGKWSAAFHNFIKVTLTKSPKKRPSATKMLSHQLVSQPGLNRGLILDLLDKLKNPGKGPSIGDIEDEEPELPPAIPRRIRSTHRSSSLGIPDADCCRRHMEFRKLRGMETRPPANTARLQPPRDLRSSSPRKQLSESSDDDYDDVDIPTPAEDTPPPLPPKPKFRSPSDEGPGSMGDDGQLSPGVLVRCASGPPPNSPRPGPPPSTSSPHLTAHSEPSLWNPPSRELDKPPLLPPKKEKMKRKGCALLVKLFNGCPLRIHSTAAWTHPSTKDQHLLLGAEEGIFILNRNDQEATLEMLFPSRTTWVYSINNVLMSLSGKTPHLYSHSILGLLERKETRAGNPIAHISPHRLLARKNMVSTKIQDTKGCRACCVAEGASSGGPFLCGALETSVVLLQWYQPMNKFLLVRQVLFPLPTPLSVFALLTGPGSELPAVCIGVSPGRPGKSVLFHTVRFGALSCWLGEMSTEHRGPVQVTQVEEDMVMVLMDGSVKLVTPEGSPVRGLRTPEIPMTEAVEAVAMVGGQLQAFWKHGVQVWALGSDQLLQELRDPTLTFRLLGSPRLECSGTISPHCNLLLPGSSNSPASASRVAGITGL

Row | Molecule | IC50
1 | (R)-7-((5-(2- (methoxymeth- yl)morpholino) pyridin-2- yl)amino)-4- (7- methylimidazo [1,2- a]pyrimidin-3- yl)isoindolin- 1-one [I-628] | < 100 nM
2 | 7-((6-((dimethylamino)methyl)-4-(tetrahydrofuran-2-yl)pyridin-2-yl)amino)-4-(7-fluoroimidazo[1,2-a]pyridin-3-yl)isoindolin-1-one [I-852] | < 100 nM
3 | CC(C)(N)[C@H]1CN(c2ccc(Nc3ccc(-c4cnc5cc(F)ccn45)c4c3C(=O)NC4)nc2)CCO1 (single isomer, unassigned) [I-671] | < 100 nM
4 | O=C1NCc2c(-c3cnc4cc(F)ccn34)ccc(Nc3ccc(N4CCO[C@@H](CNC5CC5)C4)cn3)c21 [I-495, 7-[[5-[(2S)-2-[(cyclopropyl-amino)methyl]morpholin-4-yl]-2-pyridyl]amino]-4-(7-fluoroimidazo [1,2-a]pyridin-3-yl)isoindolin-1-one] | < 100 nM
5 | Cc1ccn2c(-c3ccc(Nc4ccc(N5CCOCC5)cn4)c4c3CNC4=O)cnc2c1 [I-145, 4-(7-methylimidazo [1,2-a]pyridin-3-yl)-7-[(5-morpholino-2-pyridyl)amino] isoindolin-1-one] | < 100 nM
6 | CN(C)Cc1nc(Nc2ccc(-c3cnc4cc(F)ccn34)c3c2C(=O)NC3)ccc1OCC(F)F [I-835, 7-((5-(2,2-difluoroethoxy)-6-((dimethylamino)methyl)pyridin-2-yl)amino)-4-(7-fluoroimidazo[1,2-a]pyridin-3-yl)isoindolin-1-one] | < 100 nM
7 | C[C@H](c1ccc(Nc2ccc(-c3cnc4cc(F)ccn34)c3c2C(=O)NC3)nc1)N(C)C [I-521, (R)-7-((5-(1-(dimethylamino)-ethyl)pyridin-2-yl)amino)-4-(7-fluoroimidazo [1,2-a]pyridin-3-yl)isoindolin-1-one] | < 100 nM
8 | Cn1ccc2c(-c3ncc(Nc4ccc(N5CCOCC5)cn4)c4c3CNC4=O)cccc21 [I-221, 4-(1-methylindol-4-yl)-7-[(5-morpholino-2-pyridyl)amino]-2,3-dihydropy-rrolo[3,4-c]pyridin-1-one] | < 100 nM
9 | CO[C@H]1CC[C@H](c2ccc(Nc3ccc(-c4cnc5cc(F)ccn45)c4c3C(=O)NC4)nc2CN(C)C)C1 [I-793, 7-((6-((dimethylamino)-methyl)-5-((1S,3S)-3-methoxycyclo-pentyl)pyridin-2-yl)amino)-4-(7-fluoroimidazo [1,2-a]pyridin-3-yl)isoindolin-1-one] | < 100 nM
10 | Cn1ccc2c(-c3ncc(Nc4ccc(N5CCC(O)CC5)cn4)c4c3CNC4=O)ccnc21 [I-139, 7-[[5-(4-hydroxy-1-piperidyl)-2-pyridyl]amino]-4-(1-methylpyrrolo [2,3-b]pyridin-4-yl)-2,3-dihydropy-rrolo[3,4-c]pyridin-1-one] | < 100 nM

— patent publication US11548890B1, “HPK1 antagonists and uses thereof” (Nimbus Saturn, Inc., priority 2019, dated 2023)
